Measured values from patent US5461057A, “Hydro-ethano-indeno-pyridines” (priority 1994, dated 1995).
pIC50: −log10 of the molar value.

system: histamine-induced dyspnea; test: Bronchodilator (in vivo) Guinea Pig Dyspnea; conditions: Cavia porcellus, 1 h; 50 mg/kg, oral, one hour before histamine challenge; read-out: DYSP survivors (converted)
Experimental: Unanesthetized guinea pigs (250-350 g), fasted overnight were placed in individual closed aerosol chambers which were connected to a Monoghan Ultrasonic nebulizer. The nebulizer can deliver an ultrasonic fog of uniform particles in a range of 1-8 microns. A 0.1% solution of histamine is aerosolized into the chambers causing the guinea pigs to develop dyspnea. The test drug was given orally one hour before the histamine challenge and the onset of dyspnea was recorded. Saline control animals developed dyspnea within 90-120 seconds of aerosol exposure. […] The data was expressed as the number tested over the number survived. The model was sensitive to bronchodilator and H1 antihistamine activity. Further information relating this test can be obtained from the following two publications which are hereby incorporated by reference: Dungan, K. W. and Lish, P. M. J Allergy 32:139-151 (1961). and Lish, P. M., Robbins, S. I. and Petres E. L. J. Pharmacol. Exp. Therap. 153 L 1538 (1966 ).

Row | Structure (SMILES) | responders at 50 mg/kg
1 | CN1C2CCC1C1c3ccccc3C(c3ccccc3)C1C2 (stereo not shown) [MM] | 0%

same assay, conditions: Cavia porcellus, 1 h; 100 mg/kg, oral, one hour before histamine challenge; read-out: DYSP survivors (converted)

Row | Structure (SMILES) | responders at 100 mg/kg
2 | CN1C2CCC1C1c3ccccc3C(c3ccccc3)C1C2 (stereo not shown) [MM] | 66.7%

same assay, conditions: dose not given, oral

Row | Structure (SMILES) | DYSP survivors
3 | COc1ccc(C2C3=C(c4ccccc42)C2CCC(C3)N2C)cc1 (stereo not shown) [Y] | 2/3

system: pulmonary resistance; test: Pulmonary Resistance in the Anesthetized Rat; assay type: in vivo; conditions: Rattus norvegicus, iv; 0.5 mpk, i.v.; mean of 5 animals; % decrease in pre-drug baseline resistance; read-out: Pulmonary Resistance in Rats, % Inhibition
Experimental: Rats (400-500 g) anesthetized with dialurethane were surgically prepared with tracheal and esophageal catheters. These catheters were connected to pressure transducers for recording of air flow, tracheal and esophageal pressures. These pressures formed the basis for measurement of pulmonary resistance. Inhibition of pulmonary resistance is a reflection of bronchodilation.
All compounds were tested i. v. in 5 separate animals. All data are expressed in % decrease in the pre-drug baseline resistance and each number given is the mean of the 5 animals tested.
The model is sensitive to bronchodilator activity.
Further information relating this test can be obtained from the following publications which are hereby incorporated by reference: Comroe et al, J. Appl. Physio. 4:439-44 (1959); Dungan et al J. Pharmacol. Exp. Therap. 164:290-301(1968); and Mead, J. et al. J. Appl. Physio. 5:779-796 (1953).

Row | Structure (SMILES) | inhibition in vivo at 0.5 mg/kg
4 | CN1C2CCC1C1c3ccccc3C(c3ccccc3)C1C2 (stereo not shown) [MM] | 9%

system: acetic acid-induced writhing; test: Acetic Acid Writhing Test in Mice; assay type: in vivo, mouse; conditions: Mus musculus, po, read-out: WRITH ED50
From the text: The blockade of writhing induced by the intraperitoneal injection of acetic acid is an established experimental animal model for the screening of antinociceptive drugs (drugs which prevent the appreciation or transmission of pain sensations).
The procedure for the Acetic Acid Writhing Test in Mice is set forth in Hendershot et al, J. Pharmacol. Exp. Therap. 125:237, (1959); Koster et al., Fed. Proc. 18:412, (1959); and international application PCT/US91/06705, filed 20 Sep. 1991, which are hereby incorporated by reference.
The results for this test are given below in the units of mg/kg which is also abbreviated in this specification as mpk. The results for this test are given as effective doses (ED50 's).

Row | Structure (SMILES) | ED50
5 | COc1ccc(C2C3=C(c4ccccc42)C2CCC(C3)N2)cc1 (stereo not shown) [Compound X] | > 30 mg/kg

system: TBZ-induced ptosis; test: Effects on tetrabenazine (TBZ)-induced ptosis in mice; assay type: in vivo, mouse; conditions: Mus musculus, po
From the text: Clinically active antidepressant drugs are known to block TBZ-induced ptosis in mice (See Psychosomatic Medicine, Nodine and Moyer, Eds. Lea and Febiger, Philadelphia, 1962, pp 683-90, which is hereby incorporated by reference). Activity in this test is used to predict anti-depressant activity in man.
The procedure for the TBZ-Induced Ptosis Test in Mice is set forth in Psychosomatic Medicine, Nodine and Moyer, Eds. Lea and Febiger, which is hereby incorporated by reference and in PCT/US91/06705, filed 20 Sep. 1991, which is mentioned above.
(§1) The results for this test are given below as ED50 's in the units of mg/kg.
TBZ refers to the test of effects on tetrabenazine induced ptosis in mice, p.o.;

Row | Structure (SMILES) | ED50
6 | COc1ccc(C2C3=C(c4ccccc42)C2CCC(C3)N2)cc1 (stereo not shown) [Compound X] | 17.3 mg/kg
7 | CN1C2CCC1C1c3ccccc3C(c3ccccc3)C1C2 (stereo not shown) [MM] | 9.3 mg/kg
8 | COc1ccc(C2C3=C(c4ccccc42)C2CCC(C3)N2C)cc1 (stereo not shown) [Y] | 0.35 mg/kg

system: muricidal (mouse-killing) behavior; test: Effects on muricidal behavior in rats; assay type: in vivo, rat; conditions: Rattus norvegicus, read-out: MUR ED50
From the text: Blockade of muricidal (mouse-killing) behavior in rats is used as a measure of evaluating the anti-depressant activity of drugs, and the procedure for carrying out this test is set forth in Int. J. Neuro-pharmacal., 5, 405-411 (1966) are hereby incorporated by reference, and in PCT/US91/06705, filed 20 Sep. 1991, which is mentioned above.
as §1
MUR refers to the test on the effects on muricidal behavior in rats;

Row | Structure (SMILES) | ED50
9 | COc1ccc(C2C3=C(c4ccccc42)C2CCC(C3)N2)cc1 (stereo not shown) [Compound X] | > 30 mg/kg
10 | CN1C2CCC1C1c3ccccc3C(c3ccccc3)C1C2 (stereo not shown) [MM] | > 10 mg/kg
11 | COc1ccc(C2C3=C(c4ccccc42)C2CCC(C3)N2C)cc1 (stereo not shown) [Y] | > 20 mg/kg

system: methamphetamine toxicity; test: Methamphetamine toxicity test in mice; assay type: in vivo; conditions: Mus musculus, read-out: METHA ED50
Experimental: The methamphetamine toxicity test in mice was carried out as described in Burn et al, Arch. Int. Pharmacodyn 113:290-295, (1958); and Coscia et al, Arzneim-Forsch (Drug Research) 25:1436-1442, (1975); which are hereby incorporated by reference.
The results for this test are given below as ED50's in the units of mg/kg.
METHA refers to the methamphetamine toxicity test in mice;

Row | Structure (SMILES) | ED50
12 | COc1ccc(C2C3=C(c4ccccc42)C2CCC(C3)N2)cc1 (stereo not shown) [Compound X] | > 60 mg/kg
13 | COc1ccc(C2C3=C(c4ccccc42)C2CCC(C3)N2C)cc1 (stereo not shown) [Y] | > 30 mg/kg

system: LOX human melanoma cell adhesion to human fibronectin; test: LOX melanoma cell adhesion to fibronectin; assay type: cell-based; conditions: Homo sapiens, LOX, 10 μM; read-out: % Inhibition at 10 μM
Experimental: (§2) Adhesion assays were run essentially as described previously (Pai et al., J. Biomed. Res. 2: 53, 1992). 96-well plates were coated with human fibronectin (140 ng/well), human vitronectin (75 ng/well), human collagen I (100 ng/well), human collagen IV (100 ng/well), human fibrinogen (1 μg/well), murine laminin (600 ng/well), or polylysine, and incubated overnight in a humidified 37° C. incubator. Excess fibronectin or other substrate was then removed and 0.2 ml of 2 mg/ml bovine serum albumin (BSA)in Dulbecco's phosphate-buffered saline (DPBS) was added to each well, incubated for 2 hours at 37° C., and removed. LOX human melanoma cells, M27 murine lung carcinoma cells or B16F10 mouse melanoma cells were detached from tissue culture flasks with RPMI medium containing 0.2M urea and 10 mM EDTA, and 0.18 ml of cells were added to each well to a final cell concentration of 1×10^5 cells/well. For inhibition studies 20 μl of 10× compound was added to the wells prior to cell addition. Cells were allowed to adhere for 1 hour at 37° C. The wells were then gently washed twice with 0.2 ml DPBS. The fluorescent dye calcein AM (Molecular Probes, Eugene Oreg.) in DPBS (0.1 ml of 1 μM) was added to each well, and the plates were incubated for 1 hour at room temperature. Adherent cells were quantitated by reading the fluorescence on a Cytofluor 2300 fluorescent plate reader (Millipore) at 485 nm excitation and 530 nm emission.
LOX FN-IC50 value for inhibition of adhesion of LOX human melanoma cells to fibronectin coated on a plastic surface.

Row | Structure (SMILES) | inhibition at 10 µM
14 | COc1ccc(C2C3=C(c4ccccc42)C2CCC(C3)N2)cc1 (stereo not shown) [Compound X] | 20.8%
15 | CN1C2CCC1C1c3ccccc3C(c3ccccc3)C1C2 (stereo not shown) [MM] | -1.8%
16 | COc1ccc(C2C3=C(c4ccccc42)C2CCC(C3)N2C)cc1 (stereo not shown) [Y] | -1.2%

same assay, conditions: Homo sapiens, LOX, 50 μM; read-out: % Inhibition at 50 μM

Row | Structure (SMILES) | inhibition at 50 µM
17 | COc1ccc(C2C3=C(c4ccccc42)C2CCC(C3)N2)cc1 (stereo not shown) [Compound X] | 99.7%
18 | CN1C2CCC1C1c3ccccc3C(c3ccccc3)C1C2 (stereo not shown) [MM] | 25.8%
19 | COc1ccc(C2C3=C(c4ccccc42)C2CCC(C3)N2C)cc1 (stereo not shown) [Y] | 98.2%

same assay, conditions: Homo sapiens, LOX; Table 4; 1 hour adhesion; read-out: LOX FN IC50

Row | Structure (SMILES) | pIC50
20 | COc1ccc(C2C3=C(c4ccccc42)C2CCC(C3)N2)cc1 (stereo not shown) [Compound X] | 4.82
21 | COc1ccc(C2C3=C(c4ccccc42)C2CCC(C3)N2C)cc1 (stereo not shown) [Y] | 4.67

system: not listed separately; test: Calcein cytotoxicity assay; assay type: cell-based; conditions: human, lox melanoma cells; 2 hours, calcein AM assay; read-out: 2 Hr Tox LD50
Experimental: LOX human melanoma cells were detached from tissue culture flasks with RPMI medium containing 0.2M urea and 10 mM EDTA, and 0.18 ml of cells were added to each well to a final cell concentration of 5×10^4 cells/well. 20 μl of 10× compound was added to the wells prior to cell addition. Cells were incubated with the compound at 37° C. for 1 hour or 5 hour as indicated. Calcein AM in DPBS (0.02 ml of 5 μM) was added to each well, and the plates were incubated for an additional 1 hour at room temperature. Viable cells were quantitated by reading the fluorescence on a Cytofluor 2300 fluorescent plate reader at 485 nm excitation and 530 nm emission.

Row | Structure (SMILES) | CC50 at 2 h
22 | COc1ccc(C2C3=C(c4ccccc42)C2CCC(C3)N2)cc1 (stereo not shown) [Compound X] | 67.7 µM
23 | COc1ccc(C2C3=C(c4ccccc42)C2CCC(C3)N2C)cc1 (stereo not shown) [Y] | 63.6 µM

system: LOX human melanoma cell adhesion to polylysine; test: LOX melanoma cell adhesion to polylysine; assay type: cell-based; conditions: read-out: Poly Lys IC50
Experimental: as §2

Row | Structure (SMILES) | pIC50
24 | COc1ccc(C2C3=C(c4ccccc42)C2CCC(C3)N2)cc1 (stereo not shown) [Compound X] | 3.92
25 | COc1ccc(C2C3=C(c4ccccc42)C2CCC(C3)N2C)cc1 (stereo not shown) [Y] | 3.98
